From patent publication US12186426B2, “Solid dosage form” (IX BIOPHARMA LTD, priority 2009, dated 2025)
Where “and” joins values, the source holds several entries; their conditions need not be identical. Equal values may be shown once.

Experiments:
[1] = Ketamine wafer safety and tolerability (Likert, Bond and Lader scales) in healthy volunteers; type: in vivo, human
Protocol: Safety assessments included scheduled adverse event (AE) probes, spontaneous AE reporting, routine laboratory investigations, 12-lead electrocardiograms (ECGs) and vital sign evaluation during a 24 hour period from start of dosing. A full physical examination was performed before the first dosing occasion and 24 hours after the second dosing occasion.
Local tolerability was assessed, by using Likert scales, at pre dose, 5, 10, 15, 30 and 45 minutes and one hour post dose administration. Modified Bond and Lader scales to assess sedation and altered perception, by using the three factors “alertness”, “contentedness” and “calmness”, were performed at pre dose, 30 minutes post dose and at hours 1, 1.5, 2, 2.5, 3, 4, 6, 8, 12, and 24 hours post dose administration.
The Bond and Lader scales comprise a total of 16 100-mm lines anchored at either end by antonyms. Participants marked their current subjective state between the antonyms on the line. Each line was scored as millimetres to the mark from the negative antonym. From the resultant scores, three measures derived by factor analysis were isolated. […]

[2] = Ketamine wafer pharmacokinetics and absolute bioavailability, crossover study in healthy volunteers; conditions: for extrapolated portion of the AUC, AUCextr: range over subjects; for time of first quantifiable plasma concentration: all subjects
[3] = type: physicochemical; conditions: pH 6.8
[4] = gmean of eight volunteers, 10 mg as 30 minute IV infusion
[5] = human, plasma, other: sublingual, 25 mg
[6] = individual subjects, 10 mg as 30 minute IV infusion
[7] = individual subjects, 25 mg SL wafer
[8] = median of eight volunteers, 25 mg SL

## CNC1(c2ccccc2Cl)CCCCC1=O (racemic) [RS ketamine, ketamine]
[1]; 10 mg IV and 25 mg SL, 24 hr observation
  Bond and Lader mood rating scales (alertness, contentedness, calmness): no clear trends for effects
[1]; healthy volunteers
  ECG, vital signs, haematology, clinical chemistry, urinalysis: no clinically relevant changes or trends for abnormalities
[2]; IV 10 mg
  extrapolated portion of the AUC, AUCextr: 3-7%
[2]; IV dosing 10 mg
  time of first quantifiable plasma concentration: five
[2]; SL 25 mg
  extrapolated portion of the AUC, AUCextr: 2-9%
[2]; SL dosing 25 mg
  time of first quantifiable plasma concentration: five
[2]; [4]
  Cmax,I: 128.0 ng/mL
  VZ: 237 L
[2]; human, plasma, iv, 10 mg
  MRT: 3.9 h
  half-life: 7 h
[2]; human, plasma, iv, 10 mg, AUCINF__, gmean of eight volunteers, 10 mg as 30 minute IV infusion
  AUC: 255 ng·h/mL
[2]; human, plasma, iv, 10 mg, AUCINF__, individual subjects, 10 mg as 30 minute IV infusion
  AUC: 255 ng·h/mL
[2]; human, plasma, iv, 10 mg, CL, gmean of eight volunteers, 10 mg as 30 minute IV infusion
  clearance: 654 mL/min
[2]; human, plasma, iv, 10 mg, CL, individual subjects, 10 mg as 30 minute IV infusion
  clearance: 655 mL/min
[2]; human, plasma, iv, 10 mg, Cmax,I, gmean of eight volunteers, 10 mg as 30 minute IV infusion
  Cmax: 128 ng/mL
[2]; human, plasma, iv, 10 mg, Median CL, IV dosing 10 mg
  clearance: 628 mL/min
[2]; human, plasma, iv, 10 mg, tmax,IV, individual subjects, 10 mg as 30 minute IV infusion
  Tmax: 0.5 h
[2]; human, plasma, iv, 10 mg, tmax,IV, median of eight volunteers, 10 mg as 30 minute IV infusion
  Tmax: 0.5 h
[2]; [5]
  MRT: 3.8 h
  bioavailability: 23 to 38%
[2]; human, plasma, other: sublingual, 25 mg, AUCINF_, gmean of eight volunteers, 25 mg SL wafer
  AUC: 185 ng·h/mL
[2]; human, plasma, other: sublingual, 25 mg, AUCINF_, individual subjects, 25 mg SL wafer
  AUC: 184 ng·h/mL
[2]; human, plasma, other: sublingual, 25 mg, Cmax,S, gmean of eight volunteers, 25 mg SL wafer
  Cmax: 71.1 ng/mL
[2]; human, plasma, other: sublingual, 25 mg, tmax,SL, median of eight volunteers, 25 mg SL wafer
  Tmax: 0.75 h
[2]; [6]
  AUCINF__: 270.02 ng·h/mL and 289.22 ng·h/mL and 299.44 ng·h/mL and 261.00 ng·h/mL and 167.21 ng·h/mL and 282.73 ng·h/mL and 243.24 ng·h/mL
  CL: 37.03 L/h and 34.58 L/h and 33.40 L/h and 38.31 L/h and 59.81 L/h and 35.37 L/h and 41.11 L/h
  VZ: 283 L and 253 L and 300 L and 164 L and 385 L and 375 L and 126 L and 158 L
  t1/2,I: 5.0 h and 4.7 h and 6.0 h and 3.4 h and 4.3 h and 2.5 h and 2.7 h
  tmax,IV: 0.6 h and 0.52 h
[2]; individual subjects, 10 mg as 30 minute IV infusion, plasma
  Cmax,I: 190.2 ng/mL and 124.2 ng/mL and 120.3 ng/mL and 101.8 ng/mL and 83.18 ng/mL and 81.12 ng/mL and 226.6 ng/mL and 163.2 ng/mL
[2]; individual subjects, 25 mg SL vs 10 mg IV
  bioavailability F: 38% and 29% and 30% and 23% and 28% and 27%
[2]; [7]
  AUCINF_: 203.47 ng·h/mL and 171.90 ng·h/mL and 211.33 ng·h/mL and 186.14 ng·h/mL and 161.64 ng·h/mL and 202.89 ng·h/mL and 162.52 ng·h/mL
  t1/2,: 3.2 h and 5.5 h and 3.5 h and 2.3 h and 4.6 h and 5.1 h and 2.9 h and 1.8 h
  tmax,SL: 1 h and 0.58 h and 0.25 h
[2]; individual subjects, 25 mg SL wafer, plasma
  Cmax,S: 78.77 ng/mL and 60.24 ng/mL and 50.02 ng/mL and 76.12 ng/mL and 51.79 ng/mL and 61.17 ng/mL and 88.76 ng/mL and 128.2 ng/mL
[2]; individual subjects, 25 mg SL, MRTSL−MRTIV
  mean absorption time MAT: −1.1 hr (2×) and 0.86 hr and −0.56 hr and 0.20 hr and 0.64 hr and 1.1 hr and −0.83 hr
[2]; median of eight volunteers, 10 mg as 30 minute IV infusion
  t1/2,I: 4.5 h
[2]; [8]
  bioavailability F: 29 [27, 31] %
  mean absorption time MAT: -0.18 h
[2]; median of eight volunteers, 25 mg SL wafer
  t1/2,: 3.4 h
[2]; minimum and maximum of eight volunteers, 25 mg SL
  mean absorption time MAT, Min-Max: -1.1 to 1.1 h

## Cc1ncc2n1-c1ccc(Cl)cc1C(c1ccccc1F)=NC2 [midazolam powder, midazolam]
[3]
  dissolution rate compared with wafer: considerably slower
